Data on eleven molecules can be found in ChEMBL document CHEMBL1201862, “PubChem BioAssay data set” (2004).

The structures appear in SMILES notation.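 These data come from cells grown in 96-well plates and exposed to compound for 48 hours at five concentrations. GI50 is the concentration that inhibits growth by half.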 Calls of active or inactive are those of the source. Rule as the data show it: active = GI50 up to about 1.1 µM and inactive = higher.

Test systems include BT-549; SK-MEL-5; HCT-15; SK-OV-3; M14; NCI-H460; SK-MEL-28; HOP-62; SF-268; MOLT-4; T47D; SR; Malme-3M; SNB-19; HCT-116; SNB-75; HL-60; MCF7; MDA-MB-435; A498.
Holding throughout (assay): NCI tumour cell line growth inhibition, 48 h

For the molecule `Cc1ccc(S(=O)(=O)NC(=O)NC(CCC(N)=O)C(=O)O)cc1` (stereo not given), the GI50 in the test with BT-549 is > 100 µM (inactive); in the test with SK-MEL-5, > 100 µM (inactive); with HCT-15, over 100 µM; with SK-OV-3 it was > 100 µM (inactive); in the test with M14, > 100 µM (inactive); in the test on NCI-H460, > 100 µM (inactive). In addition, the GI50 with SK-MEL-28, with HOP-62, in the test on SF-268, in the test with MOLT-4, in the test on T47D and in the test with SR was > 100 µM (inactive) in each case. Besides, the GI50 with Malme-3M is > 100 µM (inactive); with SNB-19, > 100 µM (inactive); in the test with HCT-116, > 100 µM (inactive); in the test with SNB-75, > 100 µM (inactive); with HL-60, 69.5 µM (inactive); with MCF7 it was > 100 µM (inactive).
Turning to `COc1ccc(CCc2ccc3c(c2)OCO3)cc1`, the GI50 with BT-549 is 62.5 µM (inactive); with SK-MEL-5, 34.9 µM (inactive); with HCT-15, 35.2 µM; with SK-OV-3 it was > 100 µM (inactive); with M14, 49.8 µM (inactive); in the test with NCI-H460, > 100 µM (inactive). Further, the GI50 with SK-MEL-28 is > 100 µM (inactive); in the test on HOP-62, > 100 µM (inactive); in the test with SF-268, > 100 µM (inactive); in the test with MOLT-4, 34.7 µM (inactive); in the test with MDA-MB-435, 19.6 µM (inactive); with SR it was 17.5 µM (inactive). Besides, the GI50 is > 100 µM (inactive) in the test on Malme-3M; > 100 µM (inactive) with SNB-19; 36.6 µM (inactive) in the test with HCT-116; > 100 µM (inactive) in the test on SNB-75; > 100 µM (inactive) with A498; 21.4 µM (inactive) in the test with HL-60. In addition, in the test with MCF7, the GI50 was 35.8 µM (inactive).
Take `O=C(Nc1ccc(S(=O)(=O)Nc2ncccn2)cc1)c1c2ccccc2nc2ccccc12`: the GI50 was > 100 µM (inactive) in the test on BT-549; > 100 µM (inactive) in the test on SK-MEL-5; over 100 µM in the test on HCT-15; > 100 µM (inactive) in the test with SK-OV-3; > 100 µM (inactive) with M14; > 100 µM (inactive) with NCI-H460. The GI50 was > 100 µM (inactive) in the test on SK-MEL-28; > 100 µM (inactive) in the test with HOP-62; > 100 µM (inactive) with SF-268; > 100 µM (inactive) in the test with MOLT-4; > 100 µM (inactive) in the test on MDA-MB-435; 55.7 µM (inactive) in the test with SR. In addition, the GI50 in the test on Malme-3M is > 100 µM (inactive); with SNB-19, > 100 µM (inactive); in the test with HCT-116, > 100 µM (inactive); in the test with SNB-75, > 100 µM (inactive); in the test with A498, > 100 µM (inactive); with HL-60, < 0.01 µM (active). In addition, the GI50 in the test on MCF7 was > 100 µM (inactive).
Turning to `C=C(Cl)/C(=C\Br)CCC(Cl)C(C)C.C=C(Cl)/C(=C\Cl)CCC(Cl)C(C)C` (stereo not given), the GI50 was 15.2 µM (inactive) in the test on BT-549; 13.9 µM (inactive) in the test on SK-MEL-5; 22.8 µM (inactive) in the test on SK-OV-3; 17.4 µM (inactive) with M14; 18.1 µM (inactive) with NCI-H460; 17.2 µM (inactive) in the test on SK-MEL-28. The GI50 was 18.3 µM (inactive) with HOP-62; 18.6 µM (inactive) in the test with SF-268; 6.52 µM (inactive) in the test with MOLT-4; 15.3 µM (inactive) in the test with MDA-MB-435; 6.53 µM (inactive) in the test on SR; 15.1 µM (inactive) with Malme-3M. Further, the GI50 is 17.6 µM (inactive) in the test on SNB-19; 16.1 µM (inactive) in the test on HCT-116; 18 µM (inactive) with SNB-75; 20.3 µM (inactive) in the test on A498; 4.24 µM (inactive) in the test on HL-60; 10.6 µM (inactive) in the test with MCF7.
`CC1=CC2(C)C=C[C@@H]1C(=O)[C@@]1(C)CC[C@@](O)(C(C)C)[C@H]1CC2`: the GI50 in the test with BT-549 was 33.8 µM (inactive); in the test with SK-MEL-5 it was 19.7 µM (inactive); in the test on HCT-15, 24.2 µM; in the test with SK-OV-3, 23.6 µM (inactive); with M14, 19.3 µM (inactive); in the test with NCI-H460 it was 18.4 µM (inactive). In addition, the GI50 in the test with SK-MEL-28 is 20.9 µM (inactive); with HOP-62 it was 20.2 µM (inactive); in the test with SF-268, 23.8 µM (inactive); in the test with MOLT-4, 24.8 µM (inactive); in the test on MDA-MB-435, 20.3 µM (inactive); in the test with T47D it was 25.8 µM (inactive). Also, the GI50 was 19.4 µM (inactive) with Malme-3M; 23.6 µM (inactive) in the test with SNB-19; 17.3 µM (inactive) with HCT-116; 20.9 µM (inactive) in the test on SNB-75; 28.6 µM (inactive) in the test with A498; 28.4 µM (inactive) with MCF7.
`Clc1ccc(/C=N/C23CC4CC(CC(C4)C2)C3)c(Cl)c1`: the GI50 in the test on BT-549 was > 10 µM (inactive); in the test on SK-MEL-5, > 10 µM (inactive); in the test on HCT-15, over 10 µM; in the test with SK-OV-3 it was > 10 µM (inactive); in the test with M14 it was > 10 µM (inactive); in the test with NCI-H460, > 10 µM (inactive). Moreover, the GI50 in the test with SK-MEL-28, in the test with HOP-62, with SF-268, in the test on MOLT-4, with MDA-MB-435 and in the test with T47D was > 10 µM (inactive) each time. In addition, the GI50 in the test on SR was 3.5 µM (inactive); with Malme-3M, > 10 µM (inactive); with SNB-19 it was > 10 µM (inactive); in the test on HCT-116 it was > 10 µM (inactive); in the test on SNB-75, > 10 µM (inactive); in the test with A498, > 10 µM (inactive). In the test on HL-60, the GI50 was > 10 µM (inactive).
Take `CCOC(=O)C(C/C=C/CO)N(C)C(=O)OC(C)(C)C` (stereo not given): the GI50 in the test with BT-549 was > 100 µM (inactive); in the test on SK-MEL-5 it was > 100 µM (inactive); in the test with HCT-15, over 100 µM; in the test with SK-OV-3 it was > 100 µM (inactive); with M14, > 100 µM (inactive); in the test on NCI-H460 it was > 100 µM (inactive). In addition, the GI50 is > 100 µM (inactive) with SK-MEL-28; > 100 µM (inactive) in the test with HOP-62; 92.9 µM (inactive) in the test with SF-268; > 100 µM (inactive) in the test on MOLT-4; > 100 µM (inactive) with T47D; 94.8 µM (inactive) in the test with SR. The GI50 in the test on SNB-19 was > 100 µM (inactive); in the test with HCT-116, > 100 µM (inactive); in the test with SNB-75, 50.9 µM (inactive); with A498, > 100 µM (inactive); in the test on HL-60 it was > 100 µM (inactive); in the test on MCF7 it was > 100 µM (inactive).
For `Cc1ccc(C(=O)C2C=C(c3ccc(C)cc3)SC3C=CCC32)cc1` (stereo not given), the GI50 in the test on BT-549 is 18.3 µM (inactive); with SK-MEL-5 it was 15.5 µM (inactive); in the test on HCT-15 it was 21.6 µM; in the test with SK-OV-3 it was 25.2 µM (inactive); with M14, 19.6 µM (inactive); in the test on NCI-H460 it was 16.9 µM (inactive). For the same molecule, the GI50 is 17.4 µM (inactive) with SK-MEL-28; 20.3 µM (inactive) with HOP-62; 12.1 µM (inactive) with MOLT-4; 14.4 µM (inactive) with MDA-MB-435; 20.5 µM (inactive) with T47D; 12.6 µM (inactive) in the test on SR. The GI50 in the test on Malme-3M is 16.3 µM (inactive); in the test with SNB-19 it was 30 µM (inactive); in the test with HCT-116, 13.5 µM (inactive); with A498 it was 24.7 µM (inactive); in the test on HL-60, 8.95 µM (inactive).
With `C/C(=N\Nc1ccccc1Br)c1cccc(/C(C)=N/Nc2ccccc2Br)n1`, the GI50 in the test on BT-549 was > 100 µM (inactive); in the test on SK-MEL-5, > 100 µM (inactive); in the test with HCT-15 it was over 100 µM; with M14, > 100 µM (inactive); in the test with NCI-H460, > 100 µM (inactive); in the test on SK-MEL-28, > 100 µM (inactive). Besides, the GI50 with HOP-62 was 49.8 µM (inactive); with SF-268 it was 59 µM (inactive); in the test on MOLT-4 it was > 100 µM (inactive); in the test on MDA-MB-435, 30 µM (inactive); with SR, > 100 µM (inactive); in the test with Malme-3M, 66.8 µM (inactive). Besides, the GI50 in the test with SNB-19 is 63.1 µM (inactive); with HCT-116, > 100 µM (inactive); with SNB-75 it was 13 µM (inactive); in the test with A498, 45.9 µM (inactive); with HL-60, > 100 µM (inactive); in the test with MCF7, 54.1 µM (inactive).
Regarding `CC(=O)C(C(C)=O)[C@H]1OC(C)(C)O[C@H]1[C@H]1COC(C)(C)O1`, the GI50 with BT-549 is 28.4 µM (inactive); with SK-MEL-5, 29.1 µM (inactive); in the test with HCT-15, 29.6 µM; in the test with SK-OV-3 it was 29.2 µM (inactive); with M14 it was 44.3 µM (inactive); in the test on NCI-H460 it was 32.4 µM (inactive). Besides, the GI50 was 97.3 µM (inactive) in the test on SK-MEL-28; 23.4 µM (inactive) in the test with HOP-62; 63.8 µM (inactive) in the test with SF-268; 50.8 µM (inactive) with MOLT-4; 27.7 µM (inactive) in the test on MDA-MB-435; 89.1 µM (inactive) in the test on T47D. Besides, the GI50 in the test on Malme-3M was > 100 µM (inactive); with SNB-19, 41.6 µM (inactive); in the test with HCT-116 it was 45.2 µM (inactive); in the test on SNB-75 it was 42.2 µM (inactive); in the test on A498 it was > 100 µM (inactive); in the test on MCF7 it was 35.6 µM (inactive).
Take `O=[N+]([O-])c1ccc(N/N=C2/CC3=C2CCCCCCCCCC3)c([N+](=O)[O-])c1`: the GI50 in the test with BT-549 was > 100 µM (inactive); with SK-MEL-5, > 100 µM (inactive); in the test on HCT-15, over 100 µM; with SK-OV-3, > 100 µM (inactive); in the test with M14, > 100 µM (inactive); in the test with NCI-H460, > 100 µM (inactive). Besides, the GI50 with SK-MEL-28, with HOP-62, with SF-268, with MOLT-4, in the test with MDA-MB-435 and with T47D was > 100 µM (inactive) throughout. Moreover, the GI50 was > 100 µM (inactive) in the test with Malme-3M; > 100 µM (inactive) with SNB-19; > 100 µM (inactive) in the test with HCT-116; 44.4 µM (inactive) in the test with SNB-75; 88.9 µM (inactive) in the test with A498; > 100 µM (inactive) in the test on MCF7.
